{
  "source": "patent US20130029884A1",
  "about": "“BIOCIDE FORMULATIONS” (ENVIROSYSTEMS, INC., priority 2011, published 2013)",
  "key": {"[1]": {"test_system": "acid producing bacteria (APB)", "test": "microbiological kill study in field water (bottle growth test), acid producing bacteria", "format": "cell-based", "conditions": "field water from a well in Texas; active biocide 94 to 500 ppm tested", "method": "(§1) Microbiological studies were carried out with the formulation of Example 1 and compared to tests with other known biocides. The field water used for testing came from a well in Texas. The biocides were tested at varying concentrations of the active biocide in the field water at active biocide concentrations from 94 parts per million (ppm) to 500 ppm. The biocide of Example 1 was tested along with several known biocides.\n(§2) Microbiological kill studies were carried out in field waters considered to be problematic.\n(§3) A field water sample was used to dilute the formulation and growth media was added. […] For the SRB concentrations up to 150 ppm PCMX were studied. […] For the APB samples, concentrations of up to 100 ppm PCMX were studied. […] The diluted sample was also tested after the sample had experienced four freeze/thaw cycles and the sample with growth media added was tested with PCMX concentrations up to 100 ppm PCMX.\n(§4) For the 42 ppm hydrogen sulfide concentration water, testing was carried out with PCMX concentrations up to 100 ppm. […] For the 24 ppm hydrogen sulfide concentration water, testing was carried out with PCMX concentrations up to 125 ppm."}, "[2]": {"test_system": "sulfate reducing bacteria (SRB)", "test": "microbiological kill study in field water (bottle growth test), sulfate reducing bacteria", "format": "cell-based", "conditions": "field water from a well in Texas; active biocide 94 to 500 ppm tested", "method": "as §1, §2, §3, §4"}, "[3]": {"conditions": "cited from earlier work"}},
  "data": [
    {"molecule": "tetrakis hydroxylmethyl phosphonium sulfate [THPS]", "values": [
      {"measurement": "active biocide concentration with complete kill of APB", "setting": "[1]", "value": 150, "unit": "ppm"},
      {"measurement": "active biocide concentration with complete kill of SRB", "setting": "[2]", "value": 150, "unit": "ppm"}
    ]},
    {"molecule": "N#CC(Br)(Br)C(N)=O", "note": "[DBNPA, dibromocyanoacetamide]", "values": [
      {"measurement": "active biocide concentration with complete kill of APB", "setting": "[1]", "value": 20, "unit": "ppm"},
      {"measurement": "active biocide concentration with complete kill of SRB", "setting": "[2]", "value": 20, "unit": "ppm"}
    ]},
    {"molecule": "CN1CSC(=S)N(C)C1", "note": "[Dazomet]", "values": [
      {"measurement": "hydrolysis half life", "setting": "[3]", "value": 3.6, "unit": "h"},
      {"measurement": "active biocide concentration with complete kill of APB", "setting": "[1]", "value": "> 270", "unit": "ppm"},
      {"measurement": "active biocide concentration with complete kill of SRB", "setting": "[2]", "value": "> 270", "unit": "ppm"}
    ]},
    {"molecule": "O=CCCCC=O", "note": "[glutaraldehyde]", "values": [
      {"measurement": "active biocide concentration with complete kill of APB", "setting": "[1]", "value": 250, "unit": "ppm"},
      {"measurement": "active biocide concentration with complete kill of SRB", "setting": "[2]", "value": 250, "unit": "ppm"}
    ]}
  ]
}
